Assay results as given in patent US20210395210A1, “INHIBITION OF BACTERIAL CHAPERONIN SYSTEMS” (THE TRUSTEES OF INDIANA UNIVERSITY, priority 2018, published 2021).
Like-named read-outs stand apart in the source and are kept apart here.

Legend:
[1] = target: T1, human HSP60/10 (Homo sapiens, UniProt P10809); assay: HSP60/10-mediated dMDH refolding assay; type: biochemical; details: human HSP60/10-dMDH refolding assay
T1 construct: octa-Histidine tag (TEV-cleavable) (N, cleaved yes); made in house; host or cells: HSP60 in E. coli Rosetta 2 (DE3); HSP10 in Rosetta 2 (DE3) pLysS
T1 sequence (P10809 27-573): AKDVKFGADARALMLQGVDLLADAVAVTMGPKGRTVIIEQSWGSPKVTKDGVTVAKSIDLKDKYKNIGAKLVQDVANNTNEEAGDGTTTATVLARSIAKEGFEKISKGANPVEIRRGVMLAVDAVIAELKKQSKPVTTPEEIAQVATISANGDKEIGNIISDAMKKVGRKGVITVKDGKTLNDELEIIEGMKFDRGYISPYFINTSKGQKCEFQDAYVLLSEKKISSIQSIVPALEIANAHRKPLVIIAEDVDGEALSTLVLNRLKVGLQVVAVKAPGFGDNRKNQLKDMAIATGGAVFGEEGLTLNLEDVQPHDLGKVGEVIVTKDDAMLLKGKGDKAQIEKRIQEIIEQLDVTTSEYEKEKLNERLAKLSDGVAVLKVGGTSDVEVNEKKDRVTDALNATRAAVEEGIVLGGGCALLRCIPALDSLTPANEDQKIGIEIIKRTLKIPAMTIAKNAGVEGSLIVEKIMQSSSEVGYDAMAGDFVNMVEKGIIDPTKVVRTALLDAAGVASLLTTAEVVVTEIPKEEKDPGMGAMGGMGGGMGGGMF
Protocol: Reagent preparation: For these assays, four primary reagent stocks were prepared: 1) GroEUES-dMDH or HSP60/10-dMDH binary complex stock; 2) ATP initiation stock; 3) EDTA quench stock; 4) MDH enzymatic assay stock. Denatured MDH (dMDH) was prepared by 2-fold dilution of MDH (5 mg/ml, soluble pig heart MDH from Roche, product #10127248001) with denaturant buffer (7 M guanidine-HCl, 200 mM Tris, pH 7.4, and 50 mM DTT). MDH was completely denatured by incubating at room temperature for 45 min. The binary complex solutions were prepared by slowly adding the dMDH stock to a stirring stock with GroEL (or HSP60) in folding buffer (50 mM Tris-HCl, pH 7.4, 50 mM KCl, 10 mM MgCl2, and 1 mM DTT), followed by addition of GroES (or HSP10). The binary complex stocks were prepared immediately prior to dispensing into the assay plates and had final protein concentrations of 83.3 nM GroEL (Mr 800 kDa) or HSP60 (Mr 400 kDa), 100 nM GroES or HSP10 (Mr 70 kDa), and 20 nM dMDH in folding buffer. For the ATP initiation stock, ATP solid was diluted into folding buffer to a final concentration of 2.5 mM. Quench solution contained 600 mM EDTA (pH 8.0). The MDH enzymatic assay stock consisted of 20 mM sodium mesoxalate and 2.4 mM NADH in reaction buffer (50 mM Tris-HCl, pH 7.4, 50 mM KCl, and 1 mM DTT).
Assay Protocol: First, 30 μL aliquots of the GroEL/ES-dMDH or HSP60/10-dMDH binary complex stocks were dispensed into clear, 384-well polystyrene plates. […] The chaperonin-mediated refolding cycles were initiated by addition of 20 μL of ATP stock (reagent concentrations during refolding cycle: 50 nM GroEL or HSP60, 60 nM GroES or HSP10, 12 nM dMDH, 1 mM ATP, and compounds of 100 μM to 46 nM, 3-fold dilution series). The refolding reactions were incubated at 37° C. […] Next, the assay was quenched by addition of 10 μL of the EDTA to final concentration of 100 mM. […] A340 nm measurements were recorded at 0.5 minutes (start point) and at successive time points until the amount of NADH consumed reached ˜90% (end point, generally between 20-35 minutes). The differences between the start and end point A340 values were used to calculate the % inhibition of the GroEL/ES or HSP60/10 machinery by the compounds. […] Results presented represent the averages of IC50 values obtained from at least quadriplicate (duplicate of duplicate) replicates.

[2] = test system: Enterococcus faecium (ATCC 19434); assay: Bacterial proliferation assay, E. faecium; type: cell-based
From the text: (§1) Bacterial Strains: Enterococcus faecium—(Orla-Jensen) Schleifer and Kilpper-Balz strain NCTC 7171 (ATCC 19434); Drug sensitive Staphylococcus aureus—Rosenbranch strain Seattle 1945 (ATCC 25923); Methicillin resistant S. aureus (MRSA)—Rosenbach strain HPV107 (ATCC BAA-44); Klebsiella Pneumonia—(Schroeter) Trevisan strain NCTC 9633 (ATCC 13883); Acinetobacter baumannii—Bouvet and Grimont strain 2208 (ATCC 19606); Pseudomonas aeruginosa—(Schroeter) Migula strain NCTC 10332 (ATCC 10145); Enterobacter cloacae—E. cloacae, subsp. cloacae (Jordan) Hormaeche and Edwards strain CDC 442-68 (ATCC 13047).
(§2) Growth Media: All bacteria were grown in Brain Heart Infusion (BHI) broth/agar (Becton, Dickinson and Company). All liquid cultures were grown in BHI media supplemented with 25 mg/L Ca^2+ and 12.5 mg/L Mg^2+ to mimic free physiological concentrations of these cations. A 10 mg/mL Ca^2+ stock solution was prepared by dissolving 3.68 g of CaCl2.2H2O in 100 mL of deionized water, and a 10 mg/mL Mg^2+ stock solution was prepared by dissolving 8.36 g of MgCl2.6H2O in 100 mL deionized water. Both stock solutions were filter-sterilized using 0.2 μm pore size cellulose-acetate filters. 2.5 mL of the sterile 10 mg/mL Ca^2+ stock and 1.25 mL of the sterile 10 mg/mL Mg^2+ stock solutions were added per 1 L of autoclaved BHI medium to obtain 25 mg/L Ca^2+ and 12.5 mg/L Mg^2+ ions, respectively.
(§3) General Assay Protocol: Stock bacterial cultures were streaked onto BHI agar plates and grown overnight at 37° C. Fresh aliquots of broth were inoculated with single bacterial colonies and the cultures were grown overnight at 37° C. with shaking (240 rpm) in cation adjusted BHI media. The following morning, the overnight cultures were sub-cultured (1:5 dilution) into fresh aliquots of cation adjusted BHI media and grown at 37° C. for 1-2 hours with shaking. After 2 h, cultures were diluted into fresh media to achieve final OD600 readings of 0.017. Aliquots of these diluted cultures (30 μL) were added to clear, flat-bottom, 384-well polystyrene plates that were stamped with 0.5 μL of test compounds in 20 μL media. […] Plates were sealed with “Breathe Easy” oxygen permeable membranes (Diversified Biotech) and left to incubate at 37° C. without shaking (stagnant assay). OD600 nm readings were taken at either 6-8 h (S. aureus, MRSA, K. pneumonia, E. cloacae, and P. aeruginosa) or 24 h (E. faecium and A. baumannii). A second set of baseline control plates were prepared analogously, but without any bacteria added, to correct for possible compound absorbance and/or precipitation. Plates were then read at 600 nm using a Molecular Devices SpectraMax Plus384 microplate reader. […] Results presented represent the averages of EC50 values obtained from at quadriplicate (duplicate of duplicate) replicates.

[3] = test system: Drug sensitive Staphylococcus aureus (ATCC 25923); assay: Bacterial proliferation assay, drug sensitive S. aureus; type: cell-based
From the text: as §1, §2, §3

[4] = test system: Klebsiella Pneumonia (ATCC 13883); assay: Bacterial proliferation assay, K. pneumoniae; type: cell-based
From the text: as §1, §2, §3

[5] = test system: Pseudomonas aeruginosa (ATCC 10145); assay: Bacterial proliferation assay, P. aeruginosa; type: cell-based
From the text: as §1, §2, §3

[6] = read-out: HSP60/10-dMDH Refolding IC50
[7] = log(IC50) ± standard deviation, read-out: HSP60/10-dMDH Refolding Assay log(IC50) (converted)
[8] = ATCC19434, OD600 at 24 h, read-out: Bacterial Proliferation EC50 E. faecium
[9] = ATCC19434, log of EC50 (μM scale), with standard deviation, read-out: log(EC50) Bacterial Proliferation Assay C. faecium (converted)
[10] = ATCC25923, OD600 at 6-8 h, read-out: Bacterial Proliferation EC50 S. aureus Sensitive
[11] = ATCC25923, log of EC50 (μM scale), with standard deviation, read-out: log(EC50) Bacterial Proliferation Assay S. aureus Sensitive (converted)
[12] = ATCC13883, OD600 at 6-8 h, read-out: Bacterial Proliferation EC50 K. pneumoniae
[13] = ATCC13883, log of EC50 (μM scale), with standard deviation, read-out: log(EC50) Bacterial Proliferation Assay K. pneumoniae (converted)
[14] = ATCC10145, OD600 at 6-8 h, read-out: Bacterial Proliferation EC50 P. aeruginosa
[15] = ATCC10145, log of EC50 (μM scale), with standard deviation, read-out: log(EC50) Bacterial Proliferation Assay P. aeruginosa (converted)

Structure (SMILES): COc1c(Br)cc(Br)cc1C(=O)Nc1cccc(Cl)c1 [Compound 37, 3,5-Dibromo-N-(3-chlorophenyl)-2-methoxybenzamide]
- IC50 [1, 6]: > 100 µM
- IC50 [1, 7]: > 100 µM
- EC50 [2, 8]: > 100 µM
- EC50 [2, 9]: > 100 µM
- EC50 [3, 10]: 46 µM
- EC50 [3, 11]: 45.7 µM
- EC50 [4, 12]: > 100 µM
- EC50 [4, 13]: > 100 µM
- EC50 [5, 14]: > 100 µM
- EC50 [5, 15]: > 100 µM

Structure (SMILES): COc1ccc(Br)cc1C(=O)Nc1ccc(Sc2nc3ccccc3s2)c(Cl)c1 [Compound 31, N-(4-(Benzo[d]thiazol-2-ylthio)-3-chlorophenyl)-5-bromo-2-methoxybenzamide]
- IC50 [1, 6]: > 100 µM
- IC50 [1, 7]: > 100 µM
- EC50 [2, 8]: > 100 µM
- EC50 [2, 9]: > 100 µM
- EC50 [3, 10]: > 100 µM
- EC50 [3, 11]: > 100 µM
- EC50 [4, 12]: > 100 µM
- EC50 [4, 13]: > 100 µM
- EC50 [5, 14]: > 100 µM
- EC50 [5, 15]: > 100 µM

Structure (SMILES): O=C(Nc1cccc(Cl)c1)c1cccc(Br)c1 [Compound 24, 3-Bromo-N-(3-chlorophenyl)benzamide]
- IC50 [1, 6]: > 100 µM
- IC50 [1, 7]: > 100 µM
- EC50 [2, 8]: > 100 µM
- EC50 [2, 9]: > 100 µM
- EC50 [3, 10]: 47 µM
- EC50 [3, 11]: 46.8 µM
- EC50 [4, 12]: > 100 µM
- EC50 [4, 13]: > 100 µM
- EC50 [5, 14]: > 100 µM
- EC50 [5, 15]: > 100 µM

Structure (SMILES): COc1ccccc1C(=O)Nc1ccc(Sc2nc3ccccc3s2)cc1 [Compound 36, N-(4-(Benzo[d]thiazol-2-ylthio)phenyl)-2-methoxybenzamide]
- IC50 [1, 6]: > 100 µM
- IC50 [1, 7]: > 100 µM
- EC50 [2, 8]: > 100 µM
- EC50 [2, 9]: > 100 µM
- EC50 [3, 10]: > 100 µM
- EC50 [3, 11]: > 100 µM
- EC50 [4, 12]: > 100 µM
- EC50 [4, 13]: > 100 µM
- EC50 [5, 14]: > 100 µM
- EC50 [5, 15]: > 100 µM

Structure (SMILES): O=C(Nc1cccc(Cl)c1)c1cccc(Br)c1O [Compound 10, 3-Bromo-N-(3-chlorophenyl)-2-hydroxybenzamide]
- IC50 [1, 6]: > 100 µM
- IC50 [1, 7]: > 100 µM
- EC50 [2, 8]: > 100 µM
- EC50 [2, 9]: > 100 µM
- EC50 [3, 10]: 1.3 µM
- EC50 [3, 11]: 1.32 µM
- EC50 [4, 12]: > 100 µM
- EC50 [4, 13]: > 100 µM
- EC50 [5, 14]: > 100 µM
- EC50 [5, 15]: > 100 µM

Structure (SMILES): COc1c(Br)cc(Br)cc1C(=O)Nc1ccccc1 [Compound 41, 3,5-Dibromo-2-methoxy-N-phenylbenzamide]
- IC50 [1, 6]: > 100 µM
- IC50 [1, 7]: > 100 µM
- EC50 [2, 8]: > 100 µM
- EC50 [2, 9]: > 100 µM
- EC50 [3, 10]: > 100 µM
- EC50 [3, 11]: > 100 µM
- EC50 [4, 12]: > 100 µM
- EC50 [4, 13]: > 100 µM
- EC50 [5, 14]: > 100 µM
- EC50 [5, 15]: > 100 µM
